From patent US7759331B2, “Pyridine-containing macroheterococylic compounds as kinase inhibitors” (Janssen Pharmaceutica NV, priority 2006, dated 2010)

Tests used:
Assay in all cases: Protein kinase selectivity panel
Format in all cases: biochemical
Settings in all cases: 1.0 μM compound, 10 μM ATP
EphB2(h) = biological target: T1, EphB2(h) (Homo sapiens, UniProt P29323)
T1 sequence (P29323 19-1055): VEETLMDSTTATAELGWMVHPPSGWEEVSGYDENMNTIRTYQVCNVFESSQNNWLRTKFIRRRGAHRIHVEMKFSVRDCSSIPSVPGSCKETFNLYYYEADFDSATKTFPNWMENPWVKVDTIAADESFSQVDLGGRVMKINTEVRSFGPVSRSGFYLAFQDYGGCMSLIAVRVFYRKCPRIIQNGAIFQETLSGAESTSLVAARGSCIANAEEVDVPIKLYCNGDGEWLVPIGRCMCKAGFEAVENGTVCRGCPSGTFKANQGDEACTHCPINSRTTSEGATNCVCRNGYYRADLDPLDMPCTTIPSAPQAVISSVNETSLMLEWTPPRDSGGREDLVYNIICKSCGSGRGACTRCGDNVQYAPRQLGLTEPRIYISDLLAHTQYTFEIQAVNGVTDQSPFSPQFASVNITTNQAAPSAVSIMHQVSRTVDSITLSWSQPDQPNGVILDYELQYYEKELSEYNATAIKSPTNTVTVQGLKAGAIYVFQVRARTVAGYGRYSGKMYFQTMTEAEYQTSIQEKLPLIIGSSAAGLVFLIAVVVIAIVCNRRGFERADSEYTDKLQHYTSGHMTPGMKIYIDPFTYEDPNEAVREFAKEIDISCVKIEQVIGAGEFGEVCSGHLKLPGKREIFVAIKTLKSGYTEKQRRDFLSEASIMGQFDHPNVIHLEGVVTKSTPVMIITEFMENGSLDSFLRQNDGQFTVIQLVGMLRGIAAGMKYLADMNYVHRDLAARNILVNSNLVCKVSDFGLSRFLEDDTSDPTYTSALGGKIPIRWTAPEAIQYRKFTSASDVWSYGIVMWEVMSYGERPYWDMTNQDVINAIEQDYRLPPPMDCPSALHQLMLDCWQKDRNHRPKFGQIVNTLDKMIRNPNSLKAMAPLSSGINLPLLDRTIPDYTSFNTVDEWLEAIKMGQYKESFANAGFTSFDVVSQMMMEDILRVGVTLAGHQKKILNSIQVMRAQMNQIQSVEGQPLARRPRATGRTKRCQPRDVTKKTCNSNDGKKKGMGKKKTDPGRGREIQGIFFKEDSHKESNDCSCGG
Procedure, shortened: (§1)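 Single-point screen: compound 1.0 μM; ATP 10 μM; peptide/protein substrate matched to each kinase; reaction linear in time.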

PAK2(h) = PAK2(h) (Homo sapiens, UniProt Q13177)
Chain of PAK2(h) (Q13177 whole entry): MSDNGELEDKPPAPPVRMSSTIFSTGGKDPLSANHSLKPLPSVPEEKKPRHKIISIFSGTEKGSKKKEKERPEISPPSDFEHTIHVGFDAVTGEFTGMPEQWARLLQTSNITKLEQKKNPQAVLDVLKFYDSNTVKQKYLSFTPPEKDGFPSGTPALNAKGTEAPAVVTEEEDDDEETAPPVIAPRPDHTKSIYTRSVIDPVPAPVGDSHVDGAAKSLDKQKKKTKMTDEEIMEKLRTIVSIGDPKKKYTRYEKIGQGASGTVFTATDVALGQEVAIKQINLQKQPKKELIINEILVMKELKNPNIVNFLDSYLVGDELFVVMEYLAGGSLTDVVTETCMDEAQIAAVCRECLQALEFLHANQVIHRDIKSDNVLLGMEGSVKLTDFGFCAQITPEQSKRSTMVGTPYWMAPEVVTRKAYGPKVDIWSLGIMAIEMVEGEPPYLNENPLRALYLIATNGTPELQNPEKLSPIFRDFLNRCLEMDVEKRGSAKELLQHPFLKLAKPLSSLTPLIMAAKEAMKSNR
Procedure, shortened: as §1

PRAK(h) = biological target: T2, PRAK(h) (Homo sapiens, UniProt Q8IW41)
T2 sequence (Q8IW41 1-473): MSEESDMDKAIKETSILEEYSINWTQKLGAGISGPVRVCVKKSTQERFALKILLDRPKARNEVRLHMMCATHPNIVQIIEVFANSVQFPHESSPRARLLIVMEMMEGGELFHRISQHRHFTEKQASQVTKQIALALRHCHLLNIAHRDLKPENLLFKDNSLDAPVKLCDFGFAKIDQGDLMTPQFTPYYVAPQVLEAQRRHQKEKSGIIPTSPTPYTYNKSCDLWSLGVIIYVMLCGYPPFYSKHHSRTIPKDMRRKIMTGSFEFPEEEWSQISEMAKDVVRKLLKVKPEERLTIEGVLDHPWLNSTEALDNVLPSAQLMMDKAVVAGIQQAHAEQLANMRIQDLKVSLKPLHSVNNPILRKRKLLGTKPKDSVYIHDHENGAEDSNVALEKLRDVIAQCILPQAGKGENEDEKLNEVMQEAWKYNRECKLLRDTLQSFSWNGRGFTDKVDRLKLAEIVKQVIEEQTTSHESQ
Procedure, shortened: as §1

CDK5/p35(h) = CDK5/p35(h) (Homo sapiens, UniProt Q00535)
Chain of CDK5/p35(h) (Q00535 whole entry): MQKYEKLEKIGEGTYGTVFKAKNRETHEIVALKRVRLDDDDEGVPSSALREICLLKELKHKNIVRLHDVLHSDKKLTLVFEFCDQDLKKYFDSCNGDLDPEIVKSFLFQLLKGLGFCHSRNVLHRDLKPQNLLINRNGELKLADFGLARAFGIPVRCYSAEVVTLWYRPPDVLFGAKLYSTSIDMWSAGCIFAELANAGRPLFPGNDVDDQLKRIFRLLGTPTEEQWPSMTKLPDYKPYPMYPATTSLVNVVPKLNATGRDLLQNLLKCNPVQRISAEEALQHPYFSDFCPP
Chain of CDK5/p35(h) (Q15078 whole entry partner): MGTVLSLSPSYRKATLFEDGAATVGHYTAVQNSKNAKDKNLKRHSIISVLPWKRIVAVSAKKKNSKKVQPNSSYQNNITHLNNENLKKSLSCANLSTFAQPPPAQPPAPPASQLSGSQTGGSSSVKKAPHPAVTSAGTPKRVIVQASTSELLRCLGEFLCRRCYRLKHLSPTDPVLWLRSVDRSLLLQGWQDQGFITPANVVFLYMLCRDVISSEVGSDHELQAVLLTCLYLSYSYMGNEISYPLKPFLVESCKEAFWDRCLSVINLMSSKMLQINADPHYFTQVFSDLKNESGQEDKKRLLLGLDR
Procedure, shortened: as §1

SAPK3(h) = biological target: T3, SAPK3(h) (Homo sapiens, UniProt P53778)
T3 sequence (P53778 1-367): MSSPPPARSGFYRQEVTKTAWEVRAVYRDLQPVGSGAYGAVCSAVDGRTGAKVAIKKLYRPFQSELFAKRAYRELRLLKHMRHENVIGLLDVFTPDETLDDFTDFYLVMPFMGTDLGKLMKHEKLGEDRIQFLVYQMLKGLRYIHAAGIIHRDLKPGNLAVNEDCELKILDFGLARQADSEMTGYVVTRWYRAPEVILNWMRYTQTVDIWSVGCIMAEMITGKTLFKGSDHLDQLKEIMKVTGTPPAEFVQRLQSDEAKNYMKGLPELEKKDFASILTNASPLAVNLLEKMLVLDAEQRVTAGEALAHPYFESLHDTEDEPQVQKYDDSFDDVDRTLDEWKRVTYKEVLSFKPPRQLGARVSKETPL
Procedure, shortened: as §1

PRK2(h) = PRK2(h) (Homo sapiens, UniProt Q16513)
Chain of PRK2(h) (Q16513 whole entry): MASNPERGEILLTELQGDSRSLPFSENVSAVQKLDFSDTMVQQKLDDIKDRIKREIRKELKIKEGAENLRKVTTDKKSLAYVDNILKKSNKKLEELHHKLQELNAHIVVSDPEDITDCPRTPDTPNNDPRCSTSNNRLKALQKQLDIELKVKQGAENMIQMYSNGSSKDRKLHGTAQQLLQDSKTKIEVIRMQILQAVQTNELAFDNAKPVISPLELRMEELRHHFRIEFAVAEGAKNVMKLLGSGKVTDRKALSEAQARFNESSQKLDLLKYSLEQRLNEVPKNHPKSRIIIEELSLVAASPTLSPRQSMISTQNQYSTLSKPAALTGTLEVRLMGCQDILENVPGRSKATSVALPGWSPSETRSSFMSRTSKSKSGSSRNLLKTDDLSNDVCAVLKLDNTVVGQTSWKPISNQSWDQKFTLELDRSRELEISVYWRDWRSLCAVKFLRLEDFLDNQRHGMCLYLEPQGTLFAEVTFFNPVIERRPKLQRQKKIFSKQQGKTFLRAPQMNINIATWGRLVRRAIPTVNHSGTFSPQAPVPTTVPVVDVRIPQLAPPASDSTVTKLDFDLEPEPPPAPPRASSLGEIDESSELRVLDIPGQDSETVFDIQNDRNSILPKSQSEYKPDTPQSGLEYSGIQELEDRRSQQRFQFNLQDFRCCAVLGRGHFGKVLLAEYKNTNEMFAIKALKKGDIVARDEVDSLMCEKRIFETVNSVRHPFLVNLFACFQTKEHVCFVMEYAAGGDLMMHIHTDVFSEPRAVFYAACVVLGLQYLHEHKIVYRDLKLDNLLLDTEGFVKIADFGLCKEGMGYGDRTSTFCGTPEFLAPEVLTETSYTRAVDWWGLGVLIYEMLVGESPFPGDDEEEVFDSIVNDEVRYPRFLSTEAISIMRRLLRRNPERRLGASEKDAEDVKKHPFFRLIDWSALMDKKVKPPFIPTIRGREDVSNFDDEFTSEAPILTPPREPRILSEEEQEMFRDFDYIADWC
Procedure, shortened: as §1

Yes(h) = biological target: T4, Yes(h) (Homo sapiens, UniProt P07947)
T4 construct: purchased Upstate Cell Signaling Solutions (KinaseProfiler Selectivity Screening Service)
T4 sequence (P07947 whole entry): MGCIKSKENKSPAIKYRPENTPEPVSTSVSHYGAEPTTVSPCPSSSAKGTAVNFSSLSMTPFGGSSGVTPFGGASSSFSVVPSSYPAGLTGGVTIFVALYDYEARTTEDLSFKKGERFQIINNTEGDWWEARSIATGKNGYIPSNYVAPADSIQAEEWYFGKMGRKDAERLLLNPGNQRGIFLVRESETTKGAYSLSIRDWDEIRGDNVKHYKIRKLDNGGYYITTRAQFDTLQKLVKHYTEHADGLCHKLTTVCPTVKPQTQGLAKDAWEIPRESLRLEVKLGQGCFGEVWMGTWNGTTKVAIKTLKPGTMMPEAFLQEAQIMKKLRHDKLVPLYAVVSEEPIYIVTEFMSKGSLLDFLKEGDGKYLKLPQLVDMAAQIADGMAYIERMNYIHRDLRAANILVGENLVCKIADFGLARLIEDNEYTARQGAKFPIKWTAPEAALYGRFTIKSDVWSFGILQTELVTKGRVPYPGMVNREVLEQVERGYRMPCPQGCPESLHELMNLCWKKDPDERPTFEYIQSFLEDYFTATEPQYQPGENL
Procedure, shortened: as §1

MAPK2(m) = MAPK2(m) (Mus musculus, UniProt P63085)
Chain of MAPK2(m) (P63085 whole entry): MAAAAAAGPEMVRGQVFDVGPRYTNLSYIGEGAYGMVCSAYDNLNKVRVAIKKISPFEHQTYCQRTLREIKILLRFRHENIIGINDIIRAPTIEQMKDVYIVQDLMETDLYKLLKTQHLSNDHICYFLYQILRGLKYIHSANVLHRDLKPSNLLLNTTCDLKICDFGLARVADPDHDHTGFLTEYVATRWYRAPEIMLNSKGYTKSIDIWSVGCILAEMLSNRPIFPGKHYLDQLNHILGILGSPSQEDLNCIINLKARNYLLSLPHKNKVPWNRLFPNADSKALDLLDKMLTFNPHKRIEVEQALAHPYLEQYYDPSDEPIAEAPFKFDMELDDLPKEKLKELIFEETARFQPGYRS
Procedure, shortened: as §1

GSK3α(h) = GSK3α(h) (Homo sapiens, UniProt P49840)
Chain of GSK3α(h) (P49840 whole entry): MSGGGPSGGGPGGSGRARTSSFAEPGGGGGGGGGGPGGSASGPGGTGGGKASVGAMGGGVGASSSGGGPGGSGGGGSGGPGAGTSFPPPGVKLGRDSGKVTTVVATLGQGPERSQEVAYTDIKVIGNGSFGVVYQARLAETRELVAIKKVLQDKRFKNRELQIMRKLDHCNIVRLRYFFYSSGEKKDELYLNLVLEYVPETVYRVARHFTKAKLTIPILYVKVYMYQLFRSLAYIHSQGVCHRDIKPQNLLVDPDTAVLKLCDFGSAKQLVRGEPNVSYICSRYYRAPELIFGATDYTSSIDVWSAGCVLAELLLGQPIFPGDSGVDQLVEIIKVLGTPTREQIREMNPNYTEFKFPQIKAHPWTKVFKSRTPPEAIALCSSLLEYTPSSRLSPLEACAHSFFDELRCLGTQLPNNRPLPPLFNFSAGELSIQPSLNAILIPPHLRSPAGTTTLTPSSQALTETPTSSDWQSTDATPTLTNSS
Procedure, shortened: as §1

JNK1α1(h) = JNK1α1(h) (Homo sapiens, UniProt P45983)
Chain of JNK1α1(h) (P45983 1-384 isoform P45983-2): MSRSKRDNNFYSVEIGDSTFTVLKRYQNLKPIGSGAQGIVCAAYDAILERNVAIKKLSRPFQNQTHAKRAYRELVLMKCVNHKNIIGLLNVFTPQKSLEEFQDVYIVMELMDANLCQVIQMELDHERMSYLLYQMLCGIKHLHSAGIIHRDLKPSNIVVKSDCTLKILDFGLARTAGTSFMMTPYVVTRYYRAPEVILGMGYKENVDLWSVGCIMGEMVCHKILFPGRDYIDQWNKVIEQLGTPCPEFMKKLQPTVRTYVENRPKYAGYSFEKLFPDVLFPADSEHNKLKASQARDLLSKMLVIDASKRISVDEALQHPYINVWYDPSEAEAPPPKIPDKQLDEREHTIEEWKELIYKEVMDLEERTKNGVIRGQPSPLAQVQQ
Procedure, shortened: as §1

Activity at Protein Kinase Assays (% of control), EphB2(h) (EphB2(h)) | Activity at Protein Kinase Assays (% of control), PAK2(h) (PAK2(h)) | Activity at Protein Kinase Assays (% of control), PRAK(h) (PRAK(h)) | Activity at Protein Kinase Assays (% of control), CDK5/p35(h) (CDK5/p35(h)) | Activity at Protein Kinase Assays (% of control), SAPK3(h) (SAPK3(h)) | Activity at Protein Kinase Assays (% of control), PRK2(h) (PRK2(h)) | Activity at Protein Kinase Assays (% of control), Yes(h) (Yes(h)) | Activity at Protein Kinase Assays (% of control), MAPK2(m) (MAPK2(m)) | Activity at Protein Kinase Assays (% of control), GSK3α(h) (GSK3α(h)) | Activity at Protein Kinase Assays (% of control), JNK1α1(h) (JNK1α1(h)) | SMILES
110 % of control | 100 % of control | 101 % of control | 99 % of control | 103 % of control | 110 % of control | 58 % of control | 103 % of control | 4 % of control | 108 % of control | O=C1NC(=O)C2=C1c1cn(c3ccccc13)CCCc1cc(nc(N3CCCC3)c1)CCCn1cc2c2ccccc21 [Cpd 6, 20-pyrrolidin-1-yl-4,14,19,26-tetraazaheptacyclo[24.6.1.1^7,14.1^18,22.0^2,6.0^8,13.0^27,32]pentatriaconta-1(33),2(6),7(35),8,10,12,18(34),19,21,27,29,31-dodecaene-3,5-dione]
114 % of control | 102 % of control | 102 % of control | 104 % of control | 114 % of control | 126 % of control | 43 % of control | 99 % of control | 9 % of control | 104 % of control | O=C1NC(=O)C2=C1c1cn(c3ccccc13)CCCc1ccc(c(N3CCCC3)n1)CCCn1cc2c2ccccc21 [Cpd 7, 31-pyrrolidin-1-yl-5,15,25,30-tetraazaheptacyclo[27.2.2.1^5,12.1^18,25.0^6,11.0^13,17.0^19,24]pentatriaconta-1(31),6,8,10,12(35),13(17),18(34),19,21,23,29,32-dodecaene-14,16-dione]
125 % of control | 93 % of control | 88 % of control | 99 % of control | 78 % of control | 106 % of control | 96 % of control | 95 % of control | 4 % of control | 102 % of control | CN(C)c1nc2ccc1CCCCn1cc(c3ccccc31)C1=C(C(=O)NC1=O)c1cn(c3ccccc13)CCC2 [Cpd 1, 31-(dimethylamino)-5,15,25,32-tetraazaheptacyclo[28.2.2.1^5,12.1^18,25.0^6,11.0^13,17.0^19,24]hexatriaconta-1(32),6,8,10,12(36),13(17),18(35),19,21,23,30,33-dodecaene-14,16-dione]
114 % of control | 103 % of control | 96 % of control | 105 % of control | 115 % of control | 113 % of control | 79 % of control | 95 % of control | 3 % of control | 105 % of control | CN(C)c1cc2cc(n1)CCCn1cc(c3ccccc31)C1=C(C(=O)NC1=O)c1cn(c3ccccc13)CCC2 [Cpd 2, 20-(dimethylamino)-4,14,19,26-tetraazaheptacyclo[24.6.1.1^7,14.1^18,22.0^2,6.0^8,13.0^27,32]pentatriaconta-1(33),2(6),7(35),8,10,12,18(34),19,21,27,29,31-dodecaene-3,5-dione]
